Data from publication PMC8351955, “Targeting Mycobacterium tuberculosis response to environmental cues for the development of effective antitubercular drugs” (PLoS Biology, 2021).
Read-outs that look alike come from different tables or passages of the source.

Key:
Assay in all cases: microbe, parasite or virus in culture
Format in all cases: cell-based, Mycobacterium tuberculosis
[1] = tested on: CDC1551(rv1405c′::GFP) reporter Mtb strain; conditions: for activity at 10 µM: read-out: rv1405c'::GFP secondary assay NPA% at 10 µM compound; for activity at 20 µM: read-out: rv1405c'::GFP secondary assay NPA% at 20 µM compound
[2] = tested on: Mtb growth in J774 murine macrophage-like cells; conditions: Mycobacterium tuberculosis
[3] = tested on: CDC1551(rv2390c′::GFP) reporter Mtb strain, response to high [Cl−]; conditions: for activity at 10 µM / activity at 20 µM: 144 h; for activity at 20 µM: read-out: rv2390c'::GFP validation assay NPA% at 20 µM compound
[4] = Mycobacterium tuberculosis, pH 6.4, […], DMSO positive control = 100%, read-out: Primary screen rv2390c'::GFP NPA%
[5] = Mycobacterium tuberculosis, 10 µM, pH 6.4, 250 mM NaCl, 6 days, read-out: rv2390c'::GFP validation assay NPA% at 10 µM compound
[6] = Mycobacterium tuberculosis, pH 6.4, 250 mM NaCl, 6 days

Structure (SMILES) | rv1405c assay NPI at 10 uM ([1]; 10 uM) | rv1405c assay NPI at 20 uM ([1]; 20 uM) | IC50 ([1]; Mycobacterium tuberculosis, read-out: ShuminTan.MtbChloride.Secondary: IC50) [µM] | activity at 10 µM ([1]; Mycobacterium tuberculosis) [%] | activity at 20 µM ([1]; Mycobacterium tuberculosis) [%] | inhibition at 20 µM ([2]; J774, read-out: %inhibition compared to Rif in J774 at 20 uM) [%] | IC50 ([2]; J774 dose response 0.039-20 µM, read-out: ShuminTan.Mtb.Validation.Macrophage: IC50) [µM] | validation NPI at 10 uM ([3]; 10 uM) | validation NPI at 20 uM ([3]; 20 uM) | activity at 10 µM [3, 4] [%] | activity at 10 µM [3, 5] [%] | activity at 20 µM [3, 6] [%] | IC50 ([3]; Mycobacterium tuberculosis, read-out: ShuminTan.MtbChloride.Validation: IC50) [µM] | ShuminTan.MtbChloride.Primary: NPI% ([3]; primary screen, Sheet2) [%]
O=C(Nc1ccc(OCC(F)(F)F)nc1)N1CCCCCCC1 [RU-0275323, FC(F)(F)COC1=NC=C(NC(=O)N2CCCCCCC2)C=C1] | 111 | 112 | < 0.0391 | 111 ± 5.5 | 112 ± 10.6 | 15.8 | > 20 | 88.4 | 51.1 | 45.1 | 87.5 ± 8 | 49.4 ± 7.1 | 13 | 45.0537
OC1(c2ccccc2)CCN(Cc2cnc3c(-c4ccccc4)cnn3c2)CC1 [RU-0224846, OC1(CCN(CC2=CN3N=CC(=C3N=C2)C2=CC=CC=C2)CC1)C1=CC=CC=C1] | – | – | – | 101 ± 18 | 140 ± 37.5 | – | – | – | – | 153 | 118 ± 10.8 | 159 ± 15.9 | – | –
COC(=O)c1sc(NS(=O)(=O)c2ccc(S(C)(=O)=O)c(F)c2)nc1C [RU-0208648, COC(=O)C1=C(C)N=C(NS(=O)(=O)C2=CC(F)=C(C=C2)S(C)(=O)=O)S1] | – | – | – | 45.2 ± 2.1 | 13.7 ± 2.5 | – | – | – | – | 36.7 | 55.2 ± 3.9 | 38.5 ± 6.3 | – | –
COCCCC(=O)Nc1cccc(NC2CCCC2)c1 [RU-0215502, COCCCC(=O)NC1=CC(NC2CCCC2)=CC=C1] | – | – | – | 342 ± 33.3 | 804 ± 46.8 | – | – | – | – | 216 | 152 ± 5 | 276 ± 16.4 | – | –
COc1ccc2c(CC(=O)Nc3nc(CN4CCCCC4)cs3)coc2c1 [RU-0204291, COC1=CC2=C(C=C1)C(CC(=O)NC1=NC(CN3CCCCC3)=CS1)=CO2] | – | – | – | 104 ± 2.6 | 135 ± 13.2 | – | – | – | – | 167 | 99.2 ± 12.7 | 142 ± 13 | – | –
COc1ccc2c(C)cc(Nc3cc(F)ccc3C)nc2c1 [RU-0202188, COC1=CC2=C(C=C1)C(C)=CC(NC1=C(C)C=CC(F)=C1)=N2] | – | – | – | 206 ± 10.4 | 256 ± 16.6 | – | – | – | – | 159 | 128 ± 12.2 | 132 ± 17.8 | – | –
CC(NC(=O)C1Cc2cc(Cl)ccc2O1)c1ccc(F)c(F)c1 (centres unmarked) [RU-0272361, CC(NC(=O)C1CC2=C(O1)C=CC(Cl)=C2)C1=CC(F)=C(F)C=C1] | – | – | – | 83.2 ± 14.8 | 107 ± 4.9 | – | – | – | – | 162 | 152 ± 9 | 215 ± 14 | – | –
COc1ccc2c(c1)OCC(C(=O)C(C#N)c1nc3ccccc3o1)C2 (centres unmarked) [RU-0202553, COC1=CC2=C(CC(CO2)C(=O)C(C#N)C2=NC3=C(O2)C=CC=C3)C=C1] | – | – | – | 136 ± 12.3 | 402 ± 46.5 | – | – | – | – | 189 | 131 ± 13.6 | 249 ± 22.5 | – | –
CCNC(=O)CSc1ccc2c3c(cccc13)C(=O)c1ccccc1-2 [RU-0209034, CCNC(=O)CSC1=C2C=CC=C3C(=O)C4=C(C=CC=C4)C(C=C1)=C23] | – | – | – | 183 ± 12.7 | 401 ± 7.5 | – | – | – | – | 182 | 128 ± 15.3 | 199 ± 7.5 | – | –
CC(C)c1cc(C(=O)NC2CCN(c3cccc(F)c3)CC2)n[nH]1 [RU-0278450, CC(C)C1=CC(=NN1)C(=O)NC1CCN(CC1)C1=CC(F)=CC=C1] | – | – | – | 92.3 ± 5.3 | 146 ± 5.1 | – | – | – | – | 175 | 118 ± 5.7 | 231 ± 1 | – | –
CC(NC(=O)C1Cc2ccccc2O1)c1ccc(Cl)s1 (centres unmarked) [RU-0272776, CC(NC(=O)C1CC2=C(O1)C=CC=C2)C1=CC=C(Cl)S1] | – | – | – | 88.5 ± 5.6 | 105 ± 5.5 | – | – | – | – | 231 | 170 ± 3.6 | 192 ± 26.2 | – | –
CCCc1ccccc1NC(N)=S [RU-0214166, CCCC1=C(NC(N)=S)C=CC=C1] | – | – | – | 61.8 ± 0.5 | 111 ± 15.1 | – | – | – | – | 34.1 | 56.8 ± 5.8 | 31.6 ± 12.3 | – | –
CCNC(=O)c1ccccc1OCc1nc(-c2ccc3c(c2)OCO3)no1 [RU-0257147, CCNC(=O)C1=C(OCC2=NC(=NO2)C2=CC3=C(OCO3)C=C2)C=CC=C1] | – | – | – | 82 ± 5.5 | – | – | – | – | – | 154 | 92.6 ± 5.8 | 127 ± 7.2 | – | –
CCN(CC)c1ccc2c(NC3CCCCC3)nc(=O)oc2c1 [RU-0196346, CCN(CC)C1=CC2=C(C=C1)C(NC1CCCCC1)=NC(=O)O2] | – | – | – | 110 ± 13 | 115 ± 9.5 | – | – | – | – | 183 | 161 ± 6.2 | 192 ± 12.4 | – | –
CC(NC(=O)c1cc(Cl)ccc1NS(C)(=O)=O)c1ccc2c(c1)OCO2 (centres unmarked) [RU-0202213, CC(NC(=O)C1=C(NS(C)(=O)=O)C=CC(Cl)=C1)C1=CC2=C(OCO2)C=C1] | – | – | – | 89.3 ± 18.6 | 119 ± 13.2 | – | – | – | – | 195 | 152 ± 9.2 | 181 ± 5.7 | – | –
CC(C)CCOc1ccc(C(=O)Nc2cc(Cl)ccc2C(N)=O)cc1 [RU-0202925, CC(C)CCOC1=CC=C(C=C1)C(=O)NC1=C(C=CC(Cl)=C1)C(N)=O] | – | – | – | 63.2 ± 8.6 | 61.8 ± 14.4 | – | – | – | – | 46.5 | 57.1 ± 7.4 | 60.8 ± 9.8 | – | –
O=C(O)c1cc2ccccc2cc1NS(=O)(=O)N1CCCCC1 [RU-0210069, OC(=O)C1=C(NS(=O)(=O)N2CCCCC2)C=C2C=CC=CC2=C1] | – | – | – | 52.8 ± 1.5 | 31.2 ± 2.6 | – | – | – | – | 44.6 | 66.4 ± 3.4 | 58.6 ± 5.9 | – | –
COc1ccc(F)c(-c2cc3c(cc2C(N)=O)OCO3)c1 [RU-0251853, COC1=CC(=C(F)C=C1)C1=CC2=C(OCO2)C=C1C(N)=O] | – | – | – | 147 ± 32 | 296 ± 65.4 | – | – | – | – | 182 | 147 ± 6.1 | 276 ± 8 | – | –
CCc1ccc(NC(=O)C2(N(C)C)Cc3ccccc3C2)cc1 [RU-0276433, CCC1=CC=C(NC(=O)C2(CC3=C(C2)C=CC=C3)N(C)C)C=C1] | – | – | – | 171 ± 9.3 | 312 ± 25.3 | – | – | – | – | 157 | 124 ± 10.1 | 186 ± 4.9 | – | –
CSc1nc2nc3c(cc2c(=O)[nH]1)C(O)Oc1ccc(C)cc1-3 (centres unmarked) [RU-0183239, CSC1=NC2=C(C=C3C(O)OC4=C(C=C(C)C=C4)C3=N2)C(=O)N1] | – | – | – | 53.9 ± 4.3 | 12.9 ± 5.2 | – | – | – | – | 49.5 | 49.2 ± 4.2 | 33.7 ± 1.8 | – | –
Cn1cc(CCC(=O)Nc2ccc3c(c2)S(=O)(=O)C=C3)cn1 [RU-0278569, CN1C=C(CCC(=O)NC2=CC3=C(C=CS3(=O)=O)C=C2)C=N1] | – | – | – | 74.5 ± 5.4 | 76.5 ± 4.9 | – | – | – | – | 47.1 | 80.9 ± 7.4 | 63.4 ± 5.6 | – | –
COC(=O)Oc1sc2nc3ccccc3nc2c1N [RU-0193917, COC(=O)OC1=C(N)C2=C(S1)N=C1C=CC=CC1=N2] | – | – | – | 111 ± 4 | 179 ± 15 | – | – | – | – | 158 | 166 ± 15.7 | 184 ± 27 | – | –
CCOC(=O)c1nnc(NC(=O)c2cc(Cl)cc(Cl)c2)s1 [RU-0203287, CCOC(=O)C1=NN=C(NC(=O)C2=CC(Cl)=CC(Cl)=C2)S1] | – | – | – | 99 ± 5.3 | 111 ± 11.8 | – | – | – | – | 174 | 118 ± 12.5 | 138 ± 17 | – | –
CCOc1cc(F)ccc1NC(=O)Nc1cccc(C#N)c1 [RU-0273629, CCOC1=C(NC(=O)NC2=CC(=CC=C2)C#N)C=CC(F)=C1] | – | – | – | 188 ± 18 | 540 ± 65.6 | – | – | – | – | 170 | 203 ± 16.4 | 318 ± 21.4 | – | –
